21 compounds from patent US8735414B2 (priority 2009, dated 2014) can be followed below.

SMILES strings stand for the structures.

This test concerns bicistronic HCV replicon (replicon RNA, GenBank Accession No. AJ242654). The test can be described thus: HCV Replicon Assay. It is filed as cell-based. To be noted: Hepatitis C virus, 72 h, read-out: Replicon IC50. A general note: Replicon systems follow genome replication, usually without infectious particles.
By IC50 is commonly meant the concentration that gives 50% inhibition. In the case of `Cc1ccc2c(C#N)c(-c3ccc(S(=O)(=O)N[C@@H](C)C4CC4)cn3)n(C(C)C)c2c1` [compound 425, 6-[3-cyano-6-methyl-1-(propan-2-yl)-1H-indol-2-yl]-N-[(1S)-1-cyclopropylethyl]pyridine-3-sulfonamide], the IC50 fell in the range of 0.5 to 2 µM.

As to `Cc1cc2c(cc1F)c(C#N)c(-c1ccc(S(=O)(=O)N[C@@H](C)C(F)(F)F)cn1)n2C1CCOCC1` [compound 751, 6-[3-cyano-5-fluoro-6-methyl-1-(tetrahydro-2H-pyran-4-yl)-1H-indol-2-yl]-N-[(2S)-1,1,1-trifluoropropan-2-yl]pyridine-3-sulfonamide], the IC50 is below 0.5 µM.

With `CC(C)NS(=O)(=O)c1ccc(-c2c(C#N)c3ccc(OC(F)(F)F)cc3n2C2CCC2)cn1` [compound 26, 5-[3-cyano-1-cyclobutyl-6-(trifluoromethoxy)-1H-indol-2-yl]-N-(propan-2-yl)pyridine-2-sulfonamide], the IC50 fell in the range of 0.5 to 2 µM.

As for `[2H]C([2H])(C)c1cc2c(cc1F)c(C#N)c(-c1ccc(S(=O)(=O)N[C@@]([2H])(C)C(F)(F)F)cn1)n2-c1ncccn1` [compound 1079, 6-{3-cyano-6-[(1,1-dideuterium)ethyl]-5-fluoro-1-(pyrimidin-2-yl)-1H-indol-2-yl}-N-[(2S)-1,1,1-trifluoro(2-deuterium)propan-2-yl]pyridine-3-sulfonamide], the IC50 was below 0.5 µM.

For `CC(=O)c1cc2c(cc1F)c(C(C)=O)c(-c1ccc(S(=O)(=O)NC(C)(C)C)cn1)n2-c1ncccn1` [compound 939, N-tert-butyl-6-(3,6-diacetyl-5-fluoro-1-(pyrimidin-2-yl)-1H-indol-2-yl)pyridine-3-sulfonamide], the half-maximal inhibitory concentration (IC50) was in the range of 2 to 5 µM.

Regarding `C=Cc1cc2c(cc1F)c(C#N)c(-c1ccc(S(=O)(=O)N[C@@H](C)C(F)(F)F)cn1)n2-c1ncccn1` [compound 908, 6-[3-cyano-6-ethenyl-5-fluoro-1-(pyrimidin-2-yl)-1H-indol-2-yl]-N-[(2S)-1,1,1-trifluoropropan-2-yl]pyridine-3-sulfonamide], the IC50 is below 0.5 µM.

In the case of `Cc1cc2c(cc1F)cc(-c1ccc(S(=O)(=O)N[C@@H](C)C(F)(F)F)cn1)n2-c1nncs1` [compound 958, 6-[5-fluoro-6-methyl-1-(1,3,4-thiadiazol-2-yl)-1H-indol-2-yl]-N-[(2S)-1,1,1-trifluoropropan-2-yl]pyridine-3-sulfonamide], the half-inhibitory concentration (IC50) is 0.5 to 2 µM.

Turning to `CCc1cc2c(cc1F)c(C(N)=O)c(-c1ccc(S(=O)(=O)N[C@@H](C)C(F)(F)F)cn1)n2-c1cccc(C(F)(F)F)c1` [compound 1026, 6-ethyl-5-fluoro-1-[3-(trifluoromethyl)phenyl]-2-(5-{[(2S)-1,1,1-trifluoropropan-2-yl]sulfamoyl}pyridin-2-yl)-1H-indole-3-carboxamide], the IC50 lay within 0.5 to 2 µM.

For the compound `CCc1cc2c(cc1F)c(C#N)c(-c1ccc(S(=O)(=O)N[C@@H](C)C(F)(F)F)cn1)n2-c1ccc(C)cn1` [compound 931, 6-[3-cyano-6-ethyl-5-fluoro-1-(5-methylpyridin-2-yl)-1H-indol-2-yl]-N-[(2S)-1,1,1-trifluoropropan-2-yl]pyridine-3-sulfonamide], the concentration for half-maximal inhibition (IC50) is below 0.5 µM.

For `C[C@H](NS(=O)(=O)c1ccc(-c2cc3cc(F)c(OC(F)F)cc3n2C2CCC2)nc1)C(F)(F)F` [compound 727, 6-[1-cyclobutyl-6-(difluoromethoxy)-5-fluoro-1H-indol-2-yl]-N-[(2S)-1,1,1-trifluoropropan-2-yl]pyridine-3-sulfonamide], the half-inhibitory concentration (IC50) is below 0.5 µM.

On to `N#Cc1c(-c2ncc(S(=O)(=O)NC(CF)CF)cn2)n(C2CCC2)c2cc(CC(F)F)ccc12` [compound 591, 2-[3-cyano-1-cyclobutyl-6-(2,2-difluoroethyl)-1H-indol-2-yl]-N-(1,3-difluoropropan-2-yl)pyrimidine-5-sulfonamide], for which the IC50 was below 0.5 µM.

In the case of `CCc1cc2c(cc1F)c(C(=O)O)c(-c1cnc(NS(=O)(=O)C(C)(C)C)nc1)n2C1CCCCC1` [compound 1029, 2-{2-[(tert-butylsulfonyl)amino]pyrimidin-5-yl}-1-cyclohexyl-6-ethyl-5-fluoro-1H-indole-3-carboxylic acid], the IC50 was 2 to 5 µM.

For the compound `Cc1cc2c(cc1F)c(C#N)c(-c1ccc(S(=O)(=O)NC(C)(C)C(F)(F)F)cn1)n2C1CCOCC1` [compound 750, 6-[3-cyano-5-fluoro-6-methyl-1-(tetrahydro-2H-pyran-4-yl)-1H-indol-2-yl]-N-(1,1,1-trifluoro-2-methylpropan-2-yl)pyridine-3-sulfonamide], the half-maximal inhibitory concentration (IC50) is below 0.5 µM.

Consider `[2H][C@@](C)(NS(=O)(=O)c1ccc(-c2c(C#N)c3cc(F)c(CC)cc3n2-c2ncccn2)nc1)C(F)(F)F` [compound 956, 6-[3-cyano-6-ethyl-5-fluoro-1-(pyrimidin-2-yl)-1H-indol-2-yl]-N-[(2S)-1,1,1-trifluoro(2-deuterium)propan-2-yl]pyridine-3-sulfonamide], for which the concentration for half-maximal inhibition (IC50) is below 0.5 µM.

Regarding `CC(C)S(=O)(=O)Nc1ccc(-c2c(C#N)c3ccc(OCC(F)(F)F)cc3n2CC2CC2)cn1` [compound 291, N-{5-[3-cyano-1-(cyclopropylmethyl)-6-(2,2,2-trifluoroethoxy)-1H-indol-2-yl]pyridin-2-yl}propane-2-sulfonamide], the IC50 lay within 0.5 to 2 µM.

Regarding `C[C@H](NS(=O)(=O)c1ccc(-c2c(C(N)=O)c3cc(F)c(C4CC4)cc3n2C2CCCC2)nc1)C(F)(F)F` [compound 838, 1-cyclopentyl-6-cyclopropyl-5-fluoro-2-(5-{[(2S)-1,1,1-trifluoropropan-2-yl]sulfamoyl}pyridin-2-yl)-1H-indole-3-carboxamide], the IC50 was below 0.5 µM.

Turning to `N#Cc1c(-c2ccc(S(=O)(=O)NC(CF)CF)cn2)n(C2CCCC2)c2ccc(C(F)F)cc12` [compound 535, 6-[3-cyano-1-cyclopentyl-5-(difluoromethyl)-1H-indol-2-yl]-N-(1,3-difluoropropan-2-yl)pyridine-3-sulfonamide], the IC50 was below 0.5 µM.

Regarding `CC(C)(C)S(=O)(=O)Nc1ccc(-c2c(C(=O)O)c3cc(F)c(OC(F)F)cc3n2C2CCCCC2)cn1` [compound 1064, 2-{6-[(tert-butylsulfonyl)amino]pyridin-3-yl}-1-cyclohexyl-6-(difluoromethoxy)-5-fluoro-1H-indole-3-carboxylic acid], the half-maximal inhibitory concentration (IC50) was below 0.5 µM.

As to `CSc1ccc2c(C#N)c(-c3ccc(S(=O)(=O)NC(CF)CF)cn3)n(C3CCC3)c2c1` [compound 161, 6-[3-cyano-1-cyclobutyl-6-(methylsulfanyl)-1H-indol-2-yl]-N-(1,3-difluoropropan-2-yl)pyridine-3-sulfonamide], the IC50 was below 0.5 µM.

In the case of `Cc1cc2c(cc1F)c(C(=O)O)c(-c1ccc(S(=O)(=O)NC(C)(C)C)cn1)n2C1CCC1` [compound 776, 2-[5-(tert-butylsulfamoyl)pyridin-2-yl]-1-cyclobutyl-5-fluoro-6-methyl-1H-indole-3-carboxylic acid], the IC50 is below 0.5 µM.

In the case of `C[C@H](NS(=O)(=O)c1ccc(-c2c(C#N)c3ccc(Cl)cc3n2C2CCC2)nc1)C1CC1` [compound 154, 6-(6-chloro-3-cyano-1-cyclobutyl-1H-indol-2-yl)-N-[(1S)-1-cyclopropylethyl]pyridine-3-sulfonamide], the IC50 is below 0.5 µM.
